Legend:
[1] = system: HCT116 cells; assay: Cell viability (MTT assay), HCT116; type: cell-based; settings: Homo sapiens, HCT-116, 96 h treatment, read-out: GI50 ± SD HCT116
Experimental: (§1) SW480 (human colon adenocarcinoma, adherent, epithelial, ATCC number: CCL-228), HT29 (human colon adenocarcinoma, adherent, epithelial, ATCC number: HTB-38), and HCT116 (human colon adenocarcinoma, adherent, epithelial-like, ATCC number: CCL-247) cells were maintained in RPMI-1640 medium (Sigma-Aldrich). Medium was supplemented with heat-inactivated FBS (Biowest), penicillin–streptomycin (Sigma; with 10 000 units penicillin and 10 mg streptomycin per mL in 0.9% NaCl) and L-glutamine (Sigma; 200 mM solution). Cell cultures were cultivated at 37 °C, maintaining a humidified atmosphere consisting of 5% CO2. Gibco™ trypsin–EDTA (0.05%) was used for cell passage.
(§2) To evaluate cell viability, SW480, HT29, and HCT116 cells were harvested from culture flasks by trypsinization and seeded into 96-well plates in 4000 cells per well, 3000 cells per well and 4000 cells per well densities, respectively. After 24 h preincubation period, cells were treated in triplicates with nine different doses of each compound (6a–o and 7a–c) for 96 h. After treatment compound solutions were replaced with MTT solution (MTT reagent in PBS, […]) diluted in a 6 : 1 ratio in non-supplemented RPMI-1640 medium and were additionally incubated for 2 h. After incubation, the medium was removed, and formazan product was dissolved in DMSO. Optical densities were measured at 550 nm with TECAN Infinite® M200 PRO microplate reader using a reference wavelength of 690 nm to correct unspecific absorption. The quantity of viable cells was normalized to untreated controls. The GI50 values were calculated from dose–response curves.

[2] = system: HT29 cells; assay: Cell viability (MTT assay), HT29; type: cell-based; settings: Homo sapiens, HT-29, 96 h treatment, read-out: GI50 ± SD HT29
Experimental: as §1, §2

[3] = system: SW480 cells; assay: Cell viability (MTT assay), SW480; type: cell-based; settings: Homo sapiens, SW480, 96 h, 96 h treatment, read-out: GI50 ± SD SW480
Experimental: as §1, §2

[4] = Determination of HPLC–log P; type: physicochemical; settings: reversed-phase HPLC on apHera C18 column; methanol / 0.01 M phosphate buffer pH 7.4; mean ± SD
Experimental: HPLC–log P values were determined using Shimadzu HPLC system equipped with apHera C18 column (10 × 6 mm, 5 μm, Supelco, Bellefonte, PA, USA). Each sample was dissolved in the internal standard mixture, consisting of triphenylene (99.9%, Carl Roth) and toluene (≥98%, Sigma-Aldrich). Analysis was performed at 1.5 mL min^−1 flow rate in the linear gradient where mobile phase consisted of methanol and 0.01 M phosphate buffer (pH 7.4). The HPLC–log P values were calculated from the measured retention times using previously published equation.[57]

[5] = biological target: T1, human serum albumin (Homo sapiens, UniProt P02768); assay: Plasma protein binding (PPB), HPLC on albumin-bound stationary phase; type: in vitro ADME; settings: pH 7.4, binding to human serum albumin, HPLC method
T1 construct: purchased Chiral Technologies, DAICEL Group, Europe SAS, France CHIRALPAK®HAS (50 × 3 mm, 5 μm)
Experimental: Retention times of the analytes were measured with Shimadzu HPLC system on the CHIRALPAK®HAS stationary phase (50 × 3 mm, 5 μm, Chiral Technologies, DAICEL Group, Europe SAS, France). The mobile phase A consisted of 50 mM aqueous ammonium acetate buffer (pH 7.4) and phase B of 2-propanol according to Valko et al.[65] Analysis was performed at prolonged 1 mL min^−1 flow rate in the linear gradient. Retention capacity factors (k′) were calculated by using DMSO or a substance with 0% HAS binding for systems' dead time (Rt0). The system was calibrated by injecting the reference compounds: acetylsalicylic acid (CAS 69-72-7), betamethasone (CAS 378-44-9), budesonide (CAS 5133-22-3), carbamazepine (CAS 298-46-4), cimetidine (CAS 51481-61-9), ciprofloxacin (CAS 85721-33-1), indomethacin (CAS 53-86-1), isoniazid (CAS 54-85-3), metronidazole (CAS 443-48-1), nicardipine (CAS 55985-32-5), nizatidine (CAS 76963-41-2) and warfarin (CAS 81-81-2) obtained from Sigma-Aldrich, diclofenac (CAS 15307-86-5) from EMD Chemicals Inc., flumazenil (CAS 78755-81-4) from ABX and ketoprofen (CAS 22071-15-4) from LKT Labs. The logarithmic capacity factors of the references' Rt (log(k′)) on the HSA column were plotted against the %PPB values from literature. The slope and the intercept were used to convert the log(k′) of the compounds (6a, c, f, h, m–o) to %PPB using the regression equation.[66]

T1 sequence (P02768 25-609): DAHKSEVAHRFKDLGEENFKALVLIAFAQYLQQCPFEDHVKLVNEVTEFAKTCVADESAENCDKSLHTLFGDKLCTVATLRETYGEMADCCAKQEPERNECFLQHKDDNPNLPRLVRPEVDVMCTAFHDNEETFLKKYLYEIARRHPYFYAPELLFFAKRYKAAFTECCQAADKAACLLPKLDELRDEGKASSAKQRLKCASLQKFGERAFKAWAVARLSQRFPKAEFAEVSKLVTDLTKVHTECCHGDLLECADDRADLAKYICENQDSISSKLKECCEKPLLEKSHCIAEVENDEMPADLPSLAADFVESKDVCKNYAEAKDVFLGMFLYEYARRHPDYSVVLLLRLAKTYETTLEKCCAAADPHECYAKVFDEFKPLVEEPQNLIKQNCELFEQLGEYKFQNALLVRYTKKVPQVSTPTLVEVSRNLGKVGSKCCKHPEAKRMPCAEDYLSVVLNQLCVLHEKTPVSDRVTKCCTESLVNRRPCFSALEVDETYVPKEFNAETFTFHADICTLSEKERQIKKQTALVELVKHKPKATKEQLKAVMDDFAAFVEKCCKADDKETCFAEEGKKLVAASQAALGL

SMILES | melting point [°C] | GI50 [1] [µM] | GI50 [2] [µM] | GI50 [3] [µM] | chromatographic logP [4] | fraction unbound [5]
CCOC(=O)c1c(-c2ccccc2)c(-c2ccccc2)nn1CC(=O)c1ccc(OC)cc1 [Compound 6b, Ethyl 1-[2-(4-methoxyphenyl)-2-oxoethyl]-3,4-diphenyl-1H-pyrazole-5-carboxylate] | 144 to 145 | > 20 | > 20 | > 20 | 4.468 ± 0.006 | –
CCOC(=O)c1c(-c2ccccc2)c(-c2ccccc2)nn1CC(=O)c1ccc(Cl)cc1 [Compound 6d, Ethyl 1-[2-(4-chlorophenyl)-2-oxoethyl]-3,4-diphenyl-1H-pyrazole-5-carboxylate] | 135 to 136 | 14.5 ± 3.92 | > 20 | > 20 | 4.711 ± 0.006 | –
CCOC(=O)c1c(-c2ccccc2)c(-c2ccccc2)nn1CC(=O)c1ccc(O)cc1 [Compound 6e, Ethyl 1-[2-(4-hydroxyphenyl)-2-oxoethyl]-3,4-diphenyl-1H-pyrazole-5-carboxylate] | 143 to 144 | > 20 | > 20 | > 20 | 3.803 ± 0.012 | –
CCOC(=O)c1c(-c2ccc(OC)cc2)c(-c2ccc(OC)cc2)nn1CC(=O)c1ccccc1 [Compound 6f, Ethyl 3,4-bis(4-methoxyphenyl)-1-(2-oxo-2-phenylethyl)-1H-pyrazole-5-carboxylate] | 62 to 63 | 2.29 ± 0.218 | > 20 | > 20 | 4.462 ± 0.005 | 0.061
CCOC(=O)c1c(-c2ccc(OC)cc2)c(-c2ccc(OC)cc2)nn1CC(=O)c1ccc(OC)cc1 [Compound 6g, Ethyl 3,4-bis(4-methoxyphenyl)-1-[2-(4-methoxyphenyl)-2-oxoethyl]-1H-pyrazole-5-carboxylate] | 67 to 68 | > 20 | > 20 | > 20 | 4.531 ± 0.004 | –
CCOC(=O)c1c(-c2ccc(OC)cc2)c(-c2ccc(OC)cc2)nn1CC(=O)c1ccc(F)cc1 [Compound 6h, Ethyl 1-[2-(4-fluorophenyl)-2-oxoethyl]-3,4-bis(4-methoxy-phenyl)-1H-pyrazole-5-carboxylate] | 104 to 105 | 2.07 ± 1.45 | 4.76 ± 2.33 | 4.76 ± 2.33 | 4.531 ± 0.006 | 0.062
CCOC(=O)c1c(-c2ccc(OC)cc2)c(-c2ccc(OC)cc2)nn1CC(=O)c1ccc(Cl)cc1 [Compound 6i, Ethyl 1-[2-(4-chlorophenyl)-2-oxoethyl]-3,4-bis(4-methoxy-phenyl)-1H-pyrazole-5-carboxylate] | 132 to 133 | > 20 | > 20 | > 20 | 4.784 ± 0.005 | –
CCOC(=O)c1c(-c2ccccc2)c(-c2ccc(F)cc2)nn1CC(=O)c1ccccc1 [Compound 6j, Ethyl 3-(4-fluorophenyl)-1-(2-oxo-2-phenylethyl)-4-phenyl-1H-pyrazole-5-carboxylate] | 135 to 136 | 3.75 ± 1.06 | 13.8 ± 0.861 | 9.24 ± 2.15 | 4.49 ± 0.006 | –
CCOC(=O)c1c(-c2ccc(F)cc2)c(-c2ccc(F)cc2)nn1CC(=O)c1ccccc1 [Compound 6k, Ethyl 3,4-bis(4-fluorophenyl)-1-(2-oxo-2-phenylethyl)-1H-pyrazole-5-carboxylate] | 103 to 104 | 3.39 ± 0.62 | 11.1 ± 2.62 | 7.81 ± 2.02 | 4.546 ± 0.005 | –
CCOC(=O)c1c(-c2ccc(OC)cc2)c(-c2ccc(F)cc2)nn1CC(=O)c1ccccc1 [Compound 6l, Ethyl 3-(4-fluorophenyl)-4-(4-methoxyphenyl)-1-(2-oxo-2-phenylethyl)-1H-pyrazole-5-carboxylate] | 87 to 88 | 5.05 ± 1.16 | > 20 | 8.28 ± 2.34 | 4.499 ± 0.006 | –
CCOC(=O)c1c(-c2ccc(OC)cc2)c(-c2ccc(F)cc2)nn1CC(=O)c1ccc(F)cc1 [Compound 6n, Ethyl 3-(4-fluorophenyl)-1-[2-(4-fluorophenyl)-2-oxoethyl]-4-(4-methoxyphenyl)-1H-pyrazole-5-carboxylate] | 81 to 82 | 2.1 ± 0.198 | 6.78 ± 0.463 | 1.64 ± 0.022 | 4.564 ± 0.004 | 0.047
CCOC(=O)c1c(-c2ccc(F)cc2)c(-c2ccc(F)cc2)nn1CC(=O)c1ccc(F)cc1 [Compound 6o, Ethyl 3,4-bis(4-fluorophenyl)-1-[2-(4-fluorophenyl)-2-oxoethyl]-1H-pyrazole-5-carboxylate] | 105 to 106 | 2.36 ± 0.039 | 6.67 ± 2.12 | 2.09 ± 0.032 | 4.598 ± 0.004 | 0.029

Second part, the compound after the results:

melting point [°C] | GI50 [1] [µM] | GI50 [2] [µM] | GI50 [3] [µM] | chromatographic logP [4] | fraction unbound [5] | SMILES
209 to 210 | – | – | – | – | – | O=C(Cn1nc(-c2ccccc2)c(-c2ccccc2)c1C(=O)O)c1ccccc1 [6a′, 1-(2-Oxo-2-phenylethyl)-3,4-diphenyl-1H-pyrazole-5-carboxylic acid]
112 to 113 | 5.46 ± 0.393 | > 20 | > 20 | 4.381 ± 0.002 | 0.046 | CCOC(=O)c1c(-c2ccccc2)c(-c2ccccc2)nn1CC(=O)c1ccccc1 [Compound 6a, Ethyl 1-(2-oxo-2-phenylethyl)-3,4-diphenyl-1H-pyrazole-5-carboxylate]
138 to 139 | > 20 | > 20 | > 20 | 4.279 ± 0.005 | – | COC(=O)c1c(-c2ccccc2)c(-c2ccccc2)nn1CC(=O)c1ccccc1 [Compound 7a, Methyl 1-(2-oxo-2-phenylethyl)-3,4-diphenyl-1H-pyrazole-5-carboxylate]
163 to 164 | > 20 | > 20 | > 20 | 4.347 ± 0.007 | – | COC(=O)c1c(-c2ccccc2)c(-c2ccccc2)nn1CC(=O)c1ccc(OC)cc1 [Compound 7b, Methyl 1-[2-(4-methoxyphenyl)-2-oxoethyl]-3,4-diphenyl-1H-pyrazole-5-carboxylate]
114 to 115 | 2.7 ± 0.689 | 9.72 ± 3.71 | – | 4.327 ± 0.007 | – | COC(=O)c1c(-c2ccccc2)c(-c2ccccc2)nn1CC(=O)c1ccc(F)cc1 [Compound 7c, Methyl 1-[2-(4-fluorophenyl)-2-oxoethyl]-3,4-diphenyl-1H-pyrazole-5-carboxylate]

Reference: publication PMC9999251, “Pyrazole-based lamellarin O analogues: synthesis, biological evaluation and structure–activity relationships” (RSC Advances, 2023)
